Consider two compounds from US9056108B2, “Method of treating atrial fibrillation” (Gilead Sciences, Inc., priority 2009, dated 2015).

The test system of experiment [1] is ACh-mediated persistent AF in isolated canine coronary-perfused right atria. The experiment is described as follows: Acetylcholine (ACh)-mediated persistent AF model in coronary-perfused right atria. The settings on record: ranolazine 5 μM, dronedarone 10 μM; without ACh.
Experiment [2] shares this test system. The description is as above. Conditions: for Termination Persistent AF: ACh 1 μM-mediated persistent AF; for Prevention of AF re-induction: after termination of ACh-mediated AF; for Reduction/suppression of persistent AF: canine perfused right atrial preparations; for Induction of Persistent AF: in presence of ACh 1 μM. The protocol: To assess the anti-AF potential of ranolazine, dronedarone, and their combination, we used an acetylcholine (ACh, 1.0 μM)-mediated AF model. In the presence of ACh, premature electrical stimulation (PES) or rapid pacing (CL=50-80 ms) induces persistent AF in 100% of canine coronary-perfused right atrial preparations.^9 The effect of the drugs was assessed to prevent (series 1) the induction of AF. In a separate set of preparations, the ability of these agents was evaluated to terminate (series 2) persistent AF. In the first series, ACh was added to the perfusate 20-30 min after the start of perfusion with 5 μM ranolazine, 10 μM dronedarone, or the combination of these agents. This was followed by attempts to induce the arrhythmia electrically. In the second series, the agents were added to the perfusate during ACh-mediated persistent AF (on the 5-6th minutes after the start of the arrhythmia). In cases in which the drug terminated AF, we attempted to re-induce the arrhythmia with rapid pacing.

Experiment [3] concerns isolated canine coronary-perfused right atria. The experiment is described as follows: Electrophysiology in isolated coronary-perfused canine right atrial preparations. The settings on record: for Shortest S1-S1 (shortest CL permitting 1:1 activation) / APD90 / ERP: ranolazine 5 μM, dronedarone 10 μM; for APD90 / ERP: pectinate muscle, CL of 500 ms. As for the experimental part: Experiments were performed using isolated coronary-perfused canine right atrial (RA) and left ventricular (LV) preparations (≈3×1.5×1 cm). Isolation and perfusion of the preparations were as previously described.^9, 15, 16 Briefly, preparations were dissected from hearts removed from anesthetized (sodium pentobarbital) adult mongrel dogs (20-30 kg). Unfolded RA with attached rim of the right ventricle was cannulated and perfused with cold cardioplegic solution (4-8° C.) through the ostium of the right coronary artery; the LV wedge was perfused through a diagonal branch of the left anterior descending coronary artery. Unperfused tissue was removed with a razor blade. Cut ventricular and atrial branches were ligated using silk thread. The preparations were then transferred to a temperature-controlled bath and arterially-perfused with Tyrode's solution by use of a roller pump. The composition of the Tyrode's solution was (in mM): NaCl 129, KCl 4, NaH2PO4 0.9, NaHCO3 20, CaCl2 1.8, MgSO4 0.5, and D-glucose 5.5, buffered with 95% O2 and 5% CO2 (37±0.5° C., pH=7.35)
Transmembrane action potential (AP) recordings were obtained using floating glass microelectrodes at a sampling rate of 40 kHz. A pseudo-electrocardiogram (ECG) was recorded using two electrodes consisting of Ag/AgCl half cells placed in the Tyrode's solution bathing the preparation, 1.0 to 1.5 cm from the two opposite sides of the atrial or ventricular coronary-perfused preparations. Conduction time was approximated by the duration of “P wave” in atria and “QRS complex” in ventricles, at a level representing 10% of “P wave” and “QRS” amplitude. Diastolic threshold of excitation (DTE) was determined by increasing stimulus intensity in 0.01 mA steps. Effective refractory period (ERP) was measured by delivering premature stimuli at progressively shorter S1-S2 intervals after every 10 basic beats at a pacing cycle length (CL) of 500 ms (5 ms steps; 2 times DTE). Post-repolarization refractoriness (PRR) was recognized when ERP exceeded action potential duration measured at 90% repolarization (APD90) in the ventricle and APD measured at 70% repolarization (APD70) in atria. Ventricular ERP was coincident with APD90, whereas atrial ERP was generally coincident with APD70-75.^9 The shortest S1-S1 permitting 1:1 activation was measured by progressively shortening pacing CL starting from a CL of 500 ms.
Stable AP recordings could not be readily obtained in the vigorously contracting perfused preparations. The largest recorded maximum rate of rise of the AP upstroke (Vmax) values per experimental condition were taken for statistical comparison. Only APs having amplitudes of at least 100 mV were considered in the analysis. The largest Vmax criterion was used because this was associated with the largest amplitude and the most negative resting membrane potential, depicting full or near full impalement. In determining use-dependent depression of Vmax, values were normalized to the Vmax value at a CL of 500 ms for each experiment and then averaged.
Because of their dependence on peak INa, Vmax, DTE, PRR, and conduction time as well the shortest S1-S1 interval permitting 1:1 activation are referred to as INa-dependent parameters.
The equilibration period for the coronary-perfused preparations was 30-120 min. The preparations were exposed to 5 μM ranolazine, 10 μM dronedarone (after 30 min washout of ranolazine), and the combination of these agents for at a period of at least 20 min. In time-control experiments, 20 minutes was sufficient to achieve steady-state in the effects of each of the drugs to alter electrophysiologic parameters. Recordings were obtained at a cycle length (CL) of 500 and 300 ms, unless otherwise indicated. […] When determining the shortest S1-S1 pacing rate permitting 1:1 activation, the stimulation intensity was DTE x 2, determined at a CL of 500 ms.

Experiment [4] has as its system canine pulmonary vein (PV) sleeve preparations. The experiment is described as follows: Superfused pulmonary vein (PV) sleeve preparations. Conditions: ranolazine 5 μM; for Reduction in Vmax following change of rate: CL 5000 to 300 ms, dronedarone 10 μM (control 13%); for Diastolic threshold of excitation (DTE): CL of 300 ms, from 0.21±0.07; for Diastolic threshold of excitation (DTE) / Shortest pacing CL permitting a 1:1 response: dronedarone 10 μM; for Shortest pacing CL permitting a 1:1 response: untreated controls 116±8. The protocol:
Pulmonary vein (PV) sleeve preparations (approximately 2.0×1.5 cm) were isolated from left canine atria. The thickness of the preparation was approximately 2 mm. […] The preparations were placed in a small tissue bath and superfused with Tyrode's solution of the following composition (mM): 129 NaCl, 4 KCl, 0.9 NaH2PO4, 20 NaHCO3, 1.8 CaCl2, 0.5 MgSO4, 5.5 glucose, buffered with 95% O2/5% CO2 (35±0.5° C.). The PV preparations were stimulated at a basic cycle length (BCL) of 1000 ms during the equilibration period (1 h) using electrical pulses (1-3 ms duration, 2.5 times diastolic threshold intensity) delivered through silver bipolar electrodes insulated except at the tips. Transmembrane potentials were recorded (at a sampling rate of 40 kHz) using glass microelectrodes filled with 3 M KCl (10-20 MΩ DC resistance) connected to a high input-impedance amplification system (World Precision Instruments, model KS-700, New Haven, Conn.). The following parameters were measured: DTE, Vmax, and shortest S1-S1 permitting 1:1 activation. Acetylcholine (ACh, 1 μM), isoproterenol (1 μM), high calcium or their combination were used to induce late phase 3 EADs, DADs and triggered activity.

[5] abbreviates: ranolazine 5 μM, dronedarone 10 μM.
Where [6] appears, read: 2x threshold stimulus intensity, without ACh, in ms (unit assumed).

For the compound `COc1ccccc1OCC(O)CN1CCN(CC(=O)Nc2c(C)cccc2C)CC1` (racemic) [Ranolazine, (±)-N-(2,6-dimethylphenyl)-4-[2-hydroxy-3-(2-methoxyphenoxy)-propyl]-1-piperazineacetamide], the “Induction of Persistent AF” value in experiment [1] is on record as 0%. In addition, in experiment [2] (setting [5]), the “Termination Persistent AF” value stood at 20%, the “Prevention of AF re-induction” value was determined as 100% and the “Induction of Persistent AF” value is 71%. For the same compound, the “Reduction/suppression of persistent AF” value in experiment [2] worked out at 29%. The “Prevention of induction of sustained/persistent AF (atria)” value in experiment [2] (pretreatment, then ACh 1 μM, ranolazine 5 μM, dronedarone 10 μM) is 2/7. For the same compound, the “Shortest S1-S1 (shortest CL permitting 1:1 activation)” value (“Shortest S1-S1” below) in experiment [3] (setting [6]) worked out at 201 ± 22. Further, in experiment [3] (in presence of ACh 1 μM), the “Shortest S1-S1” value is listed as 94 ± 11, the APD90 is listed as 52 ± 6 ms and the ERP was determined as 72 ± 13 ms. In addition, in experiment [3] (without ACh), the APD90 was 210 ± 10 ms and the ERP worked out at 181 ± 11 ms. Further, in experiment [4], the “Reduction in Vmax following change of rate” value is 19%, the “Diastolic threshold of excitation (DTE)” value was found to be 0.24±0.09 mA and the “Shortest pacing CL permitting a 1:1 response” value stood at 121 ± 13 ms.

With `CCCCc1oc2ccc(NS(C)(=O)=O)cc2c1C(=O)c1ccc(OCCCN(CCCC)CCCC)cc1` [Dronedarone, N-(2-Butyl-3-(p-(3-(dibutylamino)propoxy)benzoyl)-5-benzofuranyl)methanesulfonamide], in experiment [1], the “Induction of Persistent AF” value was 0%. For the same compound, in experiment [2] (setting [5]), the “Termination Persistent AF” value was determined as 17%, the “Prevention of AF re-induction” value is on record as 0% and the “Induction of Persistent AF” value is listed as 83%. Further, in experiment [2], the “Reduction/suppression of persistent AF” value amounted to 17%. The “Shortest S1-S1” value in experiment [3] (setting [6]) stood at 147 ± 11. For the same compound, the “Prolongation of atrial ERP” value in experiment [3] (current in vitro investigation) was determined as 9%. Also, in experiment [3] (in presence of ACh 1 μM), the “Shortest S1-S1” value is recorded as 88 ± 13, the APD90 is 45 ± 5 ms and the ERP is 59 ± 7 ms. Further, in experiment [3] (without ACh), the APD90 amounted to 202 ± 9 ms and the ERP was determined as 171 ± 11 ms. Further, in experiment [4], the “Reduction in Vmax following change of rate” value was 20%, the “Diastolic threshold of excitation (DTE)” value is given as 0.26±0.09 mA and the “Shortest pacing CL permitting a 1:1 response” value was 120 ± 12 ms.
